Here are results for nine compounds from patent US20150231149A1, “SPERM FUNCTION/ACTIVITY” (University of Dundee, priority 2011, published 2015).

Test [1] has as its system human sperm motility. Nature of the test: Sperm motility assessment by CASA after PDEi treatment (screening of 43 PDEi). In kind it is cell-based. Particulars: for Effect on Sperm Motility: Mild / Effect on Sperm Motility: Strong: X or (X) marks the class, PDEi tested blinded at 1, 10 and 100 μM, 20 min at 37° C., CASA. On the procedure: Almost all phosphodiesterase inhibitors (PDEi) were purchased from Tocris Bioscience (Bristol, UK) and the other inhibitors from Sigma-Aldrich (Dorset, UK) or Santa Cruz Biotechnology (Heidelberg, Germany) by the Drug Discovery Unit (DDU) at the College Life Sciences (University of Dundee, UK) as shown in Table 1. The DDU coded the PDEi upon arrival and the coded samples were tested for sperm function with a primary focus on sperm motility. All 43 PDEi were analyzed blinded with three independent times for quantitative sperm motility using three different final concentrations (1, 10 and 100 μM).
All chemicals were purchased from Sigma-Aldrich. Two different media were used 1-medium not supporting sperm capacitation NCM: 1.8 mM CaCl2, 5.4 mM KCl, 0.8 mM MgSO4.7H2O, 116.3 mM NaCl, 1.0 mM NaH2PO4, 5.55 mM D-glucose, 2.73 mM sodium pyruvate, 41.75 mM sodium lactate, 25 mM HEPES and 2-supporting capacitation CM: 1.8 mM CaCl2, 5.4 mM KCl, 0.8 mM MgSO4.7H2O, 116.3 mM NaCl, 1.0 mM NaH2PO4, 5.55 mM D-glucose, 2.73 mM sodium pyruvate, 25 mM sodium lactate, 26 mM sodium bicarbonate. Semen samples were obtained from healthy donors (normozoospermic) and samples were produced by masturbation into a sterile plastic container after 2-3 days of sexual abstinence. Two different sperm populations were isolated from the semen using a 40-80% discontinuous density gradient procedure. Briefly, 1 ml of semen was loaded after 30 min of liquefaction at 37° C. on the top of a colloidal silica suspension (Pure Sperm™, Nidacon, Mölndal, Sweden) made of 80% and 40% layered (2 ml each). The density gradient was centrifuged at 300×g for 20 min at room temperature. The motile population was found at the bottom of the 80% fraction and the poor motility population was recovered at the interface of 40-80%, respectively called 80% and 40% fraction. Both fractions were washed using a NCM, cells were isolated by a centrifugation for 5 min at 500×g and the sperm pellet was rediluted using a NCM or CM at ˜20-25×10^6 cells/ml. Sperm cells from 3-4 different donors were pooled together after sperm preparation in order to obtain enough cells to screen 4-5 PDEi at the same time and additionally to reduced the variability. The first screening was performed with a NCM because it is the conditions normally used in clinic for intrauterine insemination (IUI). Accordingly, NCM is recommended to prevent capacitation before IUI (Björndahl et al., 2010)
Following isolation, sperm were mixed with DMSO (vehicle; 1% final concentration) or PDEi [all inhibitors were reconstituted into 1% DMSO]. Sperm cells were incubated for 20 min at 37° C. and the sperm motility was evaluated by using a Computer-Assisted-Sperm-Analysis (CASA, Ceros system [version 12]; Hamilton Thorne, Beverly, Mass.) and 4 chamber slides […] (Vitrolife, Sweden). Sperm motility was evaluated from 4 samples per treatment and at least 2,000 sperm cells were analyzed in total (see below). The setting of the CASA used was that established by the manufacturer for human spermatozoa.

The subject of test [2] is poor sperm motility population. Nature of the test: Sperm penetration assay in 1% methyl cellulose. The settings on record: PDEi 100 μM, 20 minutes, scored at 1 cm distance, n=6 (FIG. 4). In kind it is cell-based, human. Here is the method: Methyl cellulose (1% concentration) was used to mimic cervical mucus viscosity and act as a sperm function test (Ivic et al., 2002). Sperm cells were previously treated with PDEi as described above. Glass tubes (5 cm×0.8 cm×2 mm; Vitrocom, NJ, USA) were loaded with methyl cellulose by capillary action (4,000 Sigma M-) prepared in NCM and one extremity was sealed with Cristaseal™ (Hawksley, Sussex, UK). The tubes was incubated with the sperm cells at 37° C. for 1 h 15 min, then the other extremity of the tube was sealed and the number of sperm cells scored at 1 cm and 2 cm using the CASA equipped with a 20× objective magnification. The microscope was adjusted to get the right focus manually at all planes to get the sum of the sperm migrated at this distance. The results are expressed as a penetration index calculated as the number of spermatozoa observed at the site of counting with treatment/the number of spermatozoa without treatment. The speed of sperm population at the migration distance was also analyzed.

Structures can show the parent of a compound that is named as a salt.

For the compound `Cc1ccc([N+](=O)[O-])cc1S(=O)(=O)N(C)C` [BRL 50481], the “Effect on Sperm Motility: Mild” value in test [1] is listed as “(X)”.
Consider `Cl.Cl.Nc1nc(-c2ccc(Cl)c(Cl)c2)c(-c2ccncc2)s1` [CGH 2466 dihydrochloride], for which, in test [1], the “Effect on Sperm Motility: Mild” value is recorded as “(X)”.
Turning to `CN(C(=O)CCCOc1ccc2[nH]c(=O)ccc2c1)C1CCCCC1` [Cilostamide], in test [1], the “Effect on Sperm Motility: Strong” value was “(X)”.
Take `CCCCCC[C@@H]([C@@H](C)O)n1cnc2c(N)ncnc21.Cl` [EHNA hydrochloride]: the “Effect on Sperm Motility: Mild” value in test [1] is “(X)”.
Turning to `CC(C)C(=O)c1c(C(C)C)nn2ccccc12` [Ibudilast, 2-methyl-1-(2-propan-2-ylpyrazolo[1,5-a]pyridin-3-yl)propan-1-one], the “enhancement of sperm motility in a viscous solution (sperm penetration assay)” value in test [2] is reported as “best PDEI's to enhance sperm motility in a viscous solution”.
`COc1ccc(Cc2nccc3cc(OC)c(OC)cc23)cc1OC` [Papaverine]: the “enhancement of sperm motility in a viscous solution (sperm penetration assay)” value in test [2] was “best PDEI's to enhance sperm motility in a viscous solution”. For the same compound, the “effect upon sperm motility” value in test [1] is reported as “greater than expected effect upon sperm motility”.
In the same order, the values of `CCC1C(C)=NN=C(c2ccc(OC)c(OC)c2)c2cc(OC)c(OC)cc21` (centres unmarked) [Tofisopam, 1-(3,4-dimethoxyphenyl)-5-ethyl-7,8-dimethoxy-4-methyl-5H-2,3-benzodiazepine] are “best PDEI's to enhance sperm motility in a viscous solution” and “greater than expected effect upon sperm motility”.
Take `COc1cc2c(cc1OC)-c1c/c(=N\c3c(C)cc(C)cc3C)n(C)c(=O)n1CC2` [Trequinsin hydrochloride]: the “Effect on Sperm Motility: Strong” value in test [1] is reported as “(X)”.
On to `CCOC(=O)C1=C[C@]2(CC)CCCN3CCc4c(n1c1ccccc41)[C@@H]32` [Vinpocetine], for which the “Effect on Sperm Motility: Mild” value in test [1] is recorded as “(X)”.
